Experimental data: US6133313A, “Insecticidal avocadofurans and triolein” (The Regents of the University of California, priority 1998, dated 2000)
Entries after “also recorded” stand apart in the source; their conditions may differ.

Columns and labels:
Bombyx mori L. larvae = details: 4th instar, within 2 days; cited from earlier work
[1] = system: Colletotrichum gloeosporioides; details: in words; cited from earlier work
[2] = in words; cited from earlier work
S. exigua larvae [3] = assay: toxicity of furan analogs of variable side chain length in diet assay; assay type: in vivo, Spodoptera exigua; details: 5 μmoles g^-1 diet
Experimental: To determine the toxicity of avocadofurans and their furan analogs, five saturated furans of variable side chain lengths, namely 2-(tetradecyl)furan compound (20), 2-(pentadecyl)furan (1), 2-(hexadecyl)furan compound (21), 2-(heptadecyl)furan (4), and 2-(octadecyl)furan compound (22) were tested for their activity against S. exigua in diet assay. Diets for treatments were prepared at a concentration known to be insecticidal against S. exigua early instar of 5 μmoles g^-1 diet. To compare toxicity among furans, concentration in μmoles g^-1 diet were adjusted according to the molecular weights of individual furans.
Five saturated furans of variable side chain lengths: 2-(tetradecyl)furan (20), 2-(pentadecyl)furan (1), 2-(hexadecyl)furan (21), 2-(heptadecyl)furan (4), and 2-(octadecyl)furan (22) were tested for activity against S. exigua in diet bioassays. Treated diets were prepared at a concentration known to be insecticidal against S. exigua early instars (5 μmoles g^-1 diet). To compare toxicity among furans, concentrations in μmoles g^-1 of diet were used to compensate for their different molecular weights.
Each furan compound was transferred into a 50-ml polypropylene centrifuge tube (Fisher, Pittsburgh Pa.), added 2 ml of 0.1% Tween-80 solution (Fisher), homogenized with an ultrasonic homogenizer (Cole-Parmer, Chicago, Ill.), and artificial diet was added to produce a final weight of 15 g. The mixture was vortexed for 3 mm. Control diet was prepared by mixing 2 ml of Tween solution with 13 g of artificial diet to produce a final weight of 15 g. Control and treated diets were poured into 16-well bioassay trays (C-D International Inc., Pitman N.J.). One neonate was added per well. Trays were placed in an incubator set for conditions described previously. Twenty-four neonates were tested for each treatment. Each treatment was replicated four times (total of 96 larvae/treatment). Larval mortality and weight were recorded after 9 days.

S. exigua = assay: synergistic/joint toxicity of avocadofuran and triolein combinations; assay type: in vivo, Spodoptera exigua
Excerpt: The treatments were as follows: Control, 2-(pentadecyl)furan, 2-(heptadecyl)furan, triolein, individually, and 2-(pentadecyl)furan combined with 2-(heptadecyl)furan and triolein, 2-(pentadecyl)furan combined with triolein, and 2-(heptadecyl)furan combined with triolein. Because the combined LC25 s for both avocadofurans exceed their LC50 values, a concentration for each was adjusted so that when added it would approximate the value of the avocadofurans LC50 (see Table 2). These concentrations were used whenever both avocadofurans were combined in the same treatment. Treatments were replicated four times, with 15 larvae per replicate to a total of 60 larvae/treatment.
Joint effects were determined by testing all combinations of LC25 s (estimated from probit lines shown in Table 1) of the three compounds for toxicity to S. exigua. The treatments were: control, 2-(pentadecyl)furan, 2-(heptadecyl)furan, triolein, 2-(pentadecyl)furan+triolein, 2-(heptadecyl)furan+triolein, and 2-(pentadecyl)furan+2-(heptadecyl)furan+triolein. Because the combined LC25 s for both avocadofurans exceeded their LC50 values (due to a steep slope of their LC lines), a concentration for each was used so that when added together it would approximate the value of the avocadofurans LC50 (Table 1). These concentrations were used whenever both avocadofurans were combined in the same treatment.
Treatments were replicated four times, with 15 larvae per replicate (total of 60 larvae/treatment). Dietary treatment preparations and bioassay procedures were conducted as described in Example 4. For each diet treatment, 9-d larval instar and weight, pupal weights, times to pupation, and larval mortality were recorded.

neonate S. exigua = assay: individual toxicity of avocadofurans and triolein in artificial diet; assay type: in vivo, Spodoptera exigua; details: for LC50 (95% FL): in diet
Experimental: In this study, individual activity of avocadofurans was investigated quantitatively. For this purpose, eight concentrations of the avocadofurans (1) and (4) and triolein (8) were tested. Results are seen in FIG. 6.
Following pilot studies, eight concentrations of each were tested: 0, 0.5, 1, 1.5, 2, 2.5, 3, and 3.5 μmoles g^~1 diet. Also, five concentrations of triolein were tested: 0; 1,000; 2,000; 3,000; and 4,000 μg g^~1 diet. Because triolein was not compared to a structurally similar compound, a more standard dietary formulation of μg g-^1 was used rather than ^~ moles g^-1 in all triolein-treated bioassays.
Treated and control diet were prepared as described above. For each concentration the compounds were dissolved in 10 ml of Tween solution and mixed using an ultrasonic homogenizer. Untreated diet was added to make a total of 100 g and then vortexed for 3 mm. Control diet was prepared by mixing 10 ml of the Tween solution with 90 g of artificial diet to produce a final weight of 100 g. Control and treated diets were poured into 30 ml plastic cups. One neonate was placed in each cup and cups were held in an incubator. Fifteen larvae were tested at each concentration, and assays were replicated 4 times (total of 60 larvae/treatment). For each diet treatment, 9-d larval instar and weight, pupal weights, times to pupation, and larval mortality were recorded.
(§1) EC (effective concentration) values were calculated by subtracting the mean larval weight for each treatment from the mean weight of the controls, and dividing by the mean weight of the controls. LC (lethal concentration) values were obtained using probit analysis as described in Probit Analysis (1971) Cambridge University Press, Cambridge, UK. GI (growth index) and RGI (relative growth index) values were calculated as described in J. Chem. Ecol., 19:1109 (1993), but using an imax of 3 (the stage attained by most control larvae after 7 d). Statistical comparisons were conducted using SuperAnova Abacus Concept Inc., Berkeley, Calif. (1989).

S. exigua larvae [4] = assay: growth inhibition and mortality of synthetic avocadofurans and triolein in diet bioassay; assay type: in vivo, Spodoptera exigua; details: for 7-d Instar / 7-d Larval Weight: mean ± SE
Experimental: S. exigua larvae were used in all experiments. Larvae were reared on artificial diet modified from U.S.D.A. Agric. Res. Serv., Prod. Res. Rep., 1208:1 (1969), and maintained at 28+2° C., 14:10; light:dark (L:D) photoperiod.
The colony was collected from Orange Co., Calif. and had new genetic material added within 12 months prior to the study. The age of the cohorts tested was standardized by using neonates within 12 hours of eclosion. All bioassays were maintained at 28+2° C. 75% relative humidity (RH), and at 14:10 (L:D) photoperiod with fluorescent lighting.
The insecticidal activity of the fractions was tested with artificial diet bioassays. Treated diets were prepared by transferring 750 μl of acetone solutions of each fraction (equivalent to 300 mg crude idioblast cell oil) into 50-ml polypropylene centrifuge tubes (Fisher, Pittsburgh Pa.), evaporating the acetone, adding 2 ml of 0.1% Tween-80 solution (Fisher), homogenizing with an ultrasonic homogenizer (Co le-Parmer, Chicago Ill.), and adding prepared diet to produce a final weight of 15 g containing the equivalent of 2% idioblast oil. The mixture was vortexed for 3 mm.
Control diet was prepared by mixing 2 ml of Tween solution and 13 g of artificial diet to produce a final weight of 15 g. Control and treated diets were poured into 24-well (15.9 mm diameter and 15.9 mm depth) bioassay trays (C-D International Inc., Pitman N.J.). One neonate was added per well, and trays were placed in an incubator under the previously described conditions. Twenty-four neonates were tested for each fraction and control. Mortality and larval weights were recorded after 7 days.
The effect of the synthetically produced avocado furan compounds (>95% purity) and commercially available triolein (Sigma, St. Louis, Mo.) were tested on larval growth and mortality of S exigua. Treated and control diet were prepared as previously described.
Six different compound concentrations, chosen on the basis of studies with the oil fractions, were evaluated for both 2-(pentadecyl)furan and 2-(heptadecyl)furan: 0 (control), 600, 750, 900, 1050, and 1200 μg/g. Also, six concentrations of triolein (subfraction 1-1-12) were tested: 0 (control), 7000, 8000, 9000, 10000, and 11000 μg/g.
Twenty-four neonates were used per treatment. Bioassays were conducted as described in Example 4, and replicated 4 times for each concentration (i.e., a total of 96 larvae were tested for each concentration). Larval weight, instar, and mortality were recorded after 7 days […].
as §1

Bacillus subtilis = details: in words; cited from earlier work
Staphylococcus aureus = details: in words; cited from earlier work
S. exigua larvae [5] = assay: growth inhibition and mortality of synthetic avocadofurans and triolein in diet bioassay; assay type: in vivo, Spodoptera exigua; details: 3,500 μg/g
[6] = Spodoptera exigua, feed or water, 168 h

CCCCC/C=C\C/C=C\CCCCCCCC(=O)CC(O)COC(C)=O (single isomer, unassigned) [persin, 1-acetoxy-2-hydroxy-4-oxo-heneicosa-(12Z,15Z)-diene]
concentration at which growth inhibited (Bombyx mori L. larvae): 200 µg/g | antifungal activity [1]: antifungal activity

C=CCCCCCCCCCCCC(O)CC(O)CO (stereo not shown) [1,2,4-trihydroxy-n-heptadec-16-ene]
fungicidal / antifungal activity [2]: antifungal activity

C=CCCCCCCCCCCCC(O)CC(O)COC(C)=O (stereo not shown) [1-acetoxy-2,4-dihydroxy-n-heptadec-16-ene]
fungicidal / antifungal activity [2]: active as a fungicide

CCCCCCCCCCCCCCCCCCc1ccco1 [2-(octadecyl)furan]
effect on 9-day larval weight (FIG. 5B) (S. exigua larvae [3]; in words): comparable to the best compound described above, namely compound (1)

C#CCCCCCCCCCCCC(O)CC(O)COC(C)=O (stereo not shown) [1-acetoxy-2,4-dihydroxyheptadec-16-yne]
fungicidal / antifungal activity [2]: antifungal activity

CCCCCCCCCCCCCCc1ccco1 [2-(tetradecyl)furan]
effect on mortality (FIG. 5A) (S. exigua larvae [3]; 9 d, in words): had the lowest activity | effect on 9-day larval weight (FIG. 5B) (S. exigua larvae [3]; in words): significantly reducing larval weight compared to the control | mortality at 5 µmol/g (S. exigua larvae [3]; Spodoptera exigua, feed or water, 216 h, 9 d, read-out: mortality of S. exigua larvae (FIG. 5A)): < 50%

CCCCCCCCCCCCCCCCc1ccco1 [2-(hexadecyl)furan]
effect on 9-day larval weight (FIG. 5B) (S. exigua larvae [3]; in words): comparable to the best compound described above, namely compound (1)

CCCCCCCC/C=C\CCCCCCCC(=O)OCC(COC(=O)CCCCCCC/C=C\CCCCCCCC)OC(=O)CCCCCCC/C=C\CCCCCCCC [Triolein (8), triolein]
Survival to pupation (S. exigua; in vivo): 83.3% | Weight, 9-d larvae (S. exigua; mean ± spread): 111.8 ± 10.3 mg | Weight, Pupae (S. exigua; mean ± spread): 116.4 ± 3.7 mg | Developmental times (S. exigua; neonate-pupa, in d (unit assumed)): 15.3 ± 0.4 | Mortality (%) using LC25 (S. exigua; single substance, at estimated LC25): 16.7% | reduction of 9-d larval weight (FIG. 6B) (neonate S. exigua; 2,000 μg g^-1 or higher): more than 35% | comparative toxic and inhibitory effect (neonate S. exigua; in words): inhibitory at concentrations much higher than either of the avocadofurans tested in this assay | effect on larval mortality (FIG. 9) (neonate S. exigua; in words): increases larval mortality | effect on pupal weight (FIG. 7) (neonate S. exigua; in words): no effect on larval developmental time and pupal weight | larval developmental time from neonate to pupa (FIG. 8) (neonate S. exigua; in words): not significantly prolonged; also recorded: no effect on larval developmental time | Relative Growth Index (RGI) (FIG. 10) (neonate S. exigua; in words, increasing concentrations): decreased with increasing concentrations | concentration significantly reducing 9-d weight (FIG. 6B) (neonate S. exigua; lowest concentration vs controls): ≥ 2,000 μg g^-1 | LC25 (95% FL) (neonate S. exigua; triolein, larval stage): 1,900(1,304-2,339) μg g^-1 of diet | LC50 (95% FL) (neonate S. exigua; triolein, larval stage, listed as Triolein): 3,631(2,979-5,203) μg g^-1 | LC50 (95% FL) (neonate S. exigua; triolein, larval stage, listed as triolein): 3,631 μg g^-1 | EC (effective concentration; weight reduction vs control) (S. exigua larvae [4]; 7000 μg/g): 65.43% | GI (growth index) (S. exigua larvae [4]; 7000 μg/g): 0.64 | 7-d Instar (S. exigua larvae [4]; 7000 μg/g): 2.35 ± 0.08 | 7-d Larval Weight (S. exigua larvae [4]; 7000 μg/g): 10.84 ± 1.42 mg | EC (effective concentration; weight reduction vs control) (S. exigua larvae [4]; 8000 μg/g): 43.64% | GI (growth index) (S. exigua larvae [4]; 8000 μg/g): 0.67 | 7-d Instar (S. exigua larvae [4]; 8000 μg/g): 2.70 ± 0.10 | 7-d Larval Weight (S. exigua larvae [4]; 8000 μg/g): 17.67 ± 2.05 mg | EC (effective concentration; weight reduction vs control) (S. exigua larvae [4]; 9000 μg/g): 84.44% | GI (growth index) (S. exigua larvae [4]; 9000 μg/g): 0.39 | 7-d Instar (S. exigua larvae [4]; 9000 μg/g): 1.91 ± 0.08 | 7-d Larval Weight (S. exigua larvae [4]; 9000 μg/g): 4.88 ± 0.65 mg | EC (effective concentration; weight reduction vs control) (S. exigua larvae [4]; 10000 μg/g): 81.52% | GI (growth index) (S. exigua larvae [4]; 10000 μg/g): 0.37 | 7-d Instar (S. exigua larvae [4]; 10000 μg/g): 1.87 ± 0.10 | 7-d Larval Weight (S. exigua larvae [4]; 10000 μg/g): 5.79 ± 0.96 mg | EC (effective concentration; weight reduction vs control) (S. exigua larvae [4]; 11000 μg/g): 71.85% | GI (growth index) (S. exigua larvae [4]; 11000 μg/g): 0.28 | 7-d Instar (S. exigua larvae [4]; 11000 μg/g): 1.95 ± 0.13 | 7-d Larval Weight (S. exigua larvae [4]; 11000 μg/g): 8.82 ± 2.22 mg | mortality at 7000 µg/g (S. exigua larvae [4]; [6]): 18.8% | mortality at 8000 µg/g (S. exigua larvae [4]; [6]): 26% | mortality at 9000 µg/g (S. exigua larvae [4]; [6]): 40.6% | mortality at 10000 µg/g (S. exigua larvae [4]; [6]): 42.7% | mortality at 11000 µg/g (S. exigua larvae [4]; [6]): 59.4% | LC50 (95% FL) (S. exigua larvae [4]; in diet): 10364 µg/g | level in artificial diet at which toxicity is exhibited (S. exigua larvae [4]; in vivo): about 1% | inhibition of larval growth (S. exigua larvae [4]; in words): significantly inhibited larval growth at relatively high concentrations | Relative Growth Index (RGI) vs log concentration regression (FIG. 4) (S. exigua larvae [4]; log (μg/g)): y=7.68-1.83*log(x), r^2 =0.86 | concentration significantly reducing larval weight and development (S. exigua larvae [4]; lowest concentration, in diet): ≥ 7000 µg/g

C#CCCCCCCCCCCCC(O)CC(O)CO (stereo not shown) [1,2,4-trihydroxyheptadec-16-yne]
fungicidal / antifungal activity [2]: antifungal activity

C=CCCCCCCCCCCCc1ccco1 [2-(trideca-12-enyl)furan]
growth inhibitory activity (Bacillus subtilis): growth inhibitory activity | growth inhibitory activity (Staphylococcus aureus): growth inhibitory activity

CCCCCCCCCCCCC/C=C/c1ccco1 [2-(1E-pentadecenyl)furan]
reduction of larval growth compared to controls (S. exigua larvae [5]): 57.3% | mortality at 3500 µg/g (S. exigua larvae [4]; Spodoptera exigua, feed or water, 3,500 μg/g): 12.5% | concentration at which S. exigua growth is inhibited / compound active (S. exigua larvae [4]; lowest active concentration, in diet): ≥ 3,500 μg/g
